# Where a name gives a salt, the structure may show the parent alone. Read-outs that look alike come from different tables or passages of the source.
# Legend:
# [1] = tested on: platelet aggregation induced by PAF; experiment: Platelet aggregation rate induced by PAF in platelet-rich plasma of rabbits after 7 days of administration; format: in vivo, Japanese large-ear white rabbits; settings: 5.0 mg/kg once daily for 7 days; for Platelet aggregation rate 1 min / Platelet aggregation rate 5 min / Maximum platelet aggregation rate (MAX): PRP, x ± s, n = 8; for Platelet aggregation rate 1 min: 1 min after addition of 10 μL PAF; for Platelet aggregation rate 5 min: 5 min after addition of 10 μL PAF; for Maximum platelet aggregation rate (MAX): after addition of PAF; for inhibition at 5 mg/kg: Oryctolagus cuniculus, Platelet, 168 h
# Experimental: (§1) All groups were administered with a clinically used route and dosage for 7 days continuously.
# After 7 days of administration, 10.5 ml of blood was taken from the heart of each animal, wherein 1.5 ml of […] was used for taking serum and the rest 9 ml of […] was subjected to 3.8% sodium citrate at 1:9 for anticoagulation, centrifuging for 10 minutes at 800 r/min, and taking the supernatant to obtain platelet-rich plasma (PRP), wherein 100 μl of the PRP was taken for electron microscope examination, and the rest of the PRP was used for detecting of the platelet aggregation rate; the remaining portion was centrifuged for 15 min at a speed of 3000 r/min, and platelet-depleted plasma (PPP) was obtained. PPP was used to adjust the number of platelet in PRP, to be at 360×10^9/L. The platelet aggregation rate was recorded at 1 min, 5 min of addition of 10 μL of PAF inducer and the maximum platelet aggregation rate was recorded after the addition of PAR
# platelets = experiment: Scanning electron microscopy study of platelet morphology after addition of PAF; format: in vivo, Japanese large-ear white rabbits; settings: rabbits, 5.0 mg/kg once daily for 7 days; PRP after addition of PAF, 100 platelets observed
# Experimental: as §1
# The 100 μL of PRP was placed in a silicification EP tube, and 1 μL of PAF was added to induce aggregation of platelets for 15 minutes, the PRP was then placed on a copper mesh sample support laid with a Formar membrane, incubating at 37° C. for 10 min, washing with ultrapure water, fixing with 3% glutaraldehyde for 5 minutes, rewashing with ultrapure water. After the sample on the copper mesh was naturally dried, a layer of 20 nm gold film was plated on the surface of the sample, and the cell morphology was studied with an electron microscope S-3000N. 100 of platelets were observed and calculated the ratio of each type of platelet. The types of platelet under the electron microscope includes: (1) Circle type appears circular or oval, with small size, compact center, large core and low and narrow transparent periphery zone. (2) Tree like type has a single or a plurality of elongated or sheet-shaped sometimes branched foot protrudes from the dense center. (3) Flat type has a dense core in the center and a wide transparent peripheral zone which has a smooth periphery or small bulges. (4) Aggregated-type is usually composed of several to dozens of platelets, with different sizes of the aggregates, wherein the platelets are mutually connected, some of the platelets are integrally fused into a whole, and the foot processes of the peripheral part are prominent.
# [2] = cited from earlier work
# [3] = PLATO study, cited from earlier work
# [4] = in vivo; cited from earlier work
# [5] = PAF-induced, relative to Saline group
Compound,Platelet aggregation rate 1 min [1],Platelet aggregation rate 5 min [1],Maximum platelet aggregation rate (MAX) [1],"inhibition at 5 mg/kg [1, 5] [%]",Types of morphology: Circle (platelets) [%],Types of morphology: Flat (platelets) [%],Types of morphology: Tree like (platelets) [%],Severe bleeding rate ([2]; Clopidogrel-treated patients) [%],Common side effects: abdominal pain ([2]; clinical trial (CAPRIE)) [%],Common side effects: diarrhea ([2]; clinical trial (CAPRIE)) [%],Common side effects: digestive tract hemorrhage ([2]; clinical trial (CAPRIE)) [%],Common side effects: dyspepsia ([2]; clinical trial (CAPRIE)) [%],Common side effects: intracranial hemorrhage ([2]; clinical trial (CAPRIE)) [%],Common side effects: rash ([2]; clinical trial (CAPRIE)) [%],Common side effects: serious granulocyte reduction ([2]; clinical trial (CAPRIE)) [%],"Platelet aggregation inhibition rate [1, 5] [%]",Occurrence rate of interventricular interval ([3]; acute stage) [%],Occurrence rate of interventricular interval ([3]; after one month) [%],Occurrence rate of common side effects (digestive tract symptoms and rash) [4]
"COC(=O)[C@H](c1ccccc1Cl)N1CCc2sccc2C1 [Clopidogrel, (S)-alpha-(2-chlorphenyl)-6,7-dihydrothieno [3,2-c]pyridine-5-(4H)acetate hydrogen sulfate]",35.27 ± 6.08,53.73 ± 8.46,60.96 ± 9.50,13.2,7.7 ± 7.8,30.7 ± 13.6,24.6 ± 8.8,1.4,6,5,2,5,0.4,4,0.04,–,–,–,–
CC1C(=O)OC2C(O)C34C5CC(C(C)(C)C)C36C(OC(=O)C6O)OC4(C(=O)O5)C12O (centres unmarked) [Ginkgolide B],21.36 ± 4.15,33.54 ± 5.48,–,–,31.6 ± 6.4,46.1 ± 8.3,15.8 ± 6.8,–,–,–,–,–,–,–,–,44.66,–,–,–
CC(=O)Oc1cc2c(s1)CCN(C(C(=O)C1CC1)c1ccccc1F)C2 (centres unmarked) [Prasugrel],37.14 ± 8.59,55.56 ± 7.53,63.12 ± 5.47,10.1,9.9 ± 7.6,25.4 ± 8.7,19.6 ± 6.8,–,–,–,–,–,–,–,–,–,–,–,–
"CCCSc1nc(N[C@@H]2C[C@H]2c2ccc(F)c(F)c2)c2nnn([C@@H]3C[C@H](OCCO)[C@@H](O)[C@H]3O)c2n1 [Ticagrelor, (1S,2S,3R,5S)-3-[7-[(1R,2S)-2-(3,4-Difluorophenyl)cycloprolamino]-5-(propylsulfanyl)-3H-[1,2,3]triazolo [4,5-d]pyrimidin-3-yl]-5-(2-hydroxyethoxy) cyclopenane-1,2-diol]",34.21 ± 5.75,60.50 ± 9.24,67.74 ± 9.36,3.53,6.2 ± 7.5,33.6 ± 10.7,21.4 ± 9.4,–,–,–,–,–,–,–,–,–,60,2.2,–
Clc1ccccc1CN1CCc2sccc2C1 [Ticlopidine],–,–,–,–,–,–,–,–,–,–,–,–,–,–,–,–,–,–,about 10%
